{"source": "paper PMC7961786", "about": "“Magic Peptide: Unique Properties of the LRR11 Peptide in the Activation of Leukotriene Synthesis in Human Neutrophils” (International Journal of Molecular Sciences, 2021)", "key": {"[1]": {"test_system": "vascular smooth muscle cells", "details": "ref [56]; cited from earlier work", "source_text": "RAGE is shown to bind molecules, known as damage-associated molecular patterns (DAMPs), released by cells that die or are under conditions of inflammation."}, "[2]": {"test_system": "telomeric G-quadruplex DNA", "details": "ref [42]; cited from earlier work", "source_text": "(§1) LRR11, like LL-37, belongs to the group of cationic antimicrobial peptides, which are characterized by high content of hydrophobic residues (~40%) and overall positive charge due to the increased content of Arg and Lys residues. They block many functions of LPS [39, 40], interact with intracellular DNA, and mediate DNA uptake and transport in mammalian cells."}, "cells, CpG-ODN delivery": {"test_system": "cells, CpG-ODN delivery", "details": "ref [43],[44]; cited from earlier work", "source_text": "as §1"}, "[3]": {"test_system": "PMNLs, 5-LOX product formation", "assay": "5-LOX product formation in PMNLs stimulated by calcium ionophore A23187", "assay_type": "cell-based, human", "experimental": "(§2) Human neutrophils were isolated from freshly taken citrate-anticoagulated peripheral blood from healthy individuals using standard methods. Leukocyte-rich plasma was prepared by sedimentation of erythrocytes with 3% dextran T-500 at room temperature. For purification of granulocytes, centrifugation through Ficoll-Paque (density 1.077 g/mL) was used, followed by hypotonic lysis of the remaining erythrocytes. PMNLs were washed twice in PBS, resuspended at 10^7 cells/mL (96–97% purity, 98–99% viability) in Dulbecco’s PBS containing 1 mg/mL glucose (no CaCl2) and stored at room temperature. All methods were performed in accordance with the relevant instructions and regulations of the Ministry of Health of the Russian Federation and local legislation.\n(§3) To purify the water/methanol extracts, solid-phase extraction was used on Sep-Pak C18 cartridges (500 mg; Macherey-Nagel, Dueren, Germany), which were conditioned first with methanol, and then with water. Major 5-LOX metabolites were identified by comparing retention times with those of known compounds, as previously described."}, "[4]": {"test_system": "human neutrophils (PMNLs), 5-LOX product synthesis", "assay": "5-LOX metabolite synthesis in human neutrophils stimulated with opsonized S. typhimurium (HPLC)", "assay_type": "cell-based", "experimental": "Figure 1 Effects of LRR11 and ODNs on the formation of LTB4 (A,B) and the sum of 5-LOX metabolites (ω-OH-LTB4, LTB4 and its isomers, and 5-HETE) (C) in human PMNLs. PMNLs (2 × 10^7) were incubated for 15 min at 37 °C without (black bars) or with 1 μM LRR11 (A, LRR11_first); then ODNs and LRR11 or LPS were added; various ways of adding ODN and LRR11 peptide are indicated. In control samples, Hanks’ solution was added instead of ODNs. After 20 min, 0.5 × 10^9 S. typhimurium bacterial cells were added for a further 15 min. The 5-LOX products were determined using HPLC. Values indicate mean ± SEM of five independent experiments performed in duplicate. * p < 0.05, ** p < 0.01, *** p < 0.005, compared with the control. # p < 0.05, ## p < 0.01 for pairs of data compared as indicated by two-way ANOVA followed by Tukey’s multiple comparison test.\nFigure 3 Synthesis of the 5-LOX metabolites in PMNLs exposed to opsonized S. typhimurium bacteria in the presence of the RAGE antagonist FPS-ZM1. PMNLs (2 × 10^7) were incubated for 15 min at 37 °C without additives or with 0.15 µM FPS-ZM1, for the next 20 min the mixture was incubated with 1 µM ODNs without (black bars) or with 1 µM LRR11 (gray bars) before adding 5 × 10^8 S. typhimurium for 15 min. In control samples, Hanks’ solution was added instead of ODNs. The 5-LOX products were determined using HPLC. Graphical data are presented for LTB4 (A) or the sum of LTB4 and its isomers, ω-OH-LTB4 and 5-HETE, designed as Σ5LOX products (B).\nas §2, with “PMNLs were washed twice in PBS, resuspended at 10^7 cells/mL (96–97% purity, 98–99% viability) in Dulbecco’s PBS containing 1 mg/mL glucose (no CaCl2) and stored at room temperature.” left out\nBacteria (S. typhimurium IE 147 strain) obtained from the Collection of Gamaleya National Research Center of Epidemiology and Microbiology (Moscow, Russia) were grown in Luria–Bertani broth to a concentration of 1 × 10^9 colony-forming units (CFU)/mL. The bacteria were collected by centrifugation at 2000 g and opsonized immediately before the experiment for 30 min in 20% (v/v) fresh serum from the same donor whose blood was used to isolate neutrophils. Repeated centrifugation in Dulbecco’s solution was used to wash the bacteria.\nThe cell suspension (2 × 10^7 PMNLs in HBSS/HEPES, reaction volume of 6 mL) was cultured for 15 min in an incubator at 37 °C, 5% CO2. Then 1.0 µM ODN with or without 1.0 µM LRR11, or 2 µg/mL LPS, was added as indicated. After 20 min, the cells were stimulated with S. typhimurium (the ratio of bacteria to PMNLs was approximately 20:1) for the next 15 min [3]. The synthesis of 5-LOX metabolites was stopped by adding an equal volume of methanol at −20 °C with prostaglandin B2 as an internal standard. Samples were stored at −20 °C. The denatured cell suspension was centrifuged, and supernatants designated as water/methanol extracts.\nas §3\nTable S1. Effect of Chloroquine on 5-LOX product formation in PMNLs after ODN priming followed by the addition\nof opsonized S. typhimurium bacteria."}, "[5]": {"test_system": "human neutrophils (PMNLs)", "assay": "Binding and uptake of FAM-labeled ODNs by neutrophils (flow cytometry)", "assay_type": "cell-based", "details": "0.15 µM FPS-ZM1, 15 min, then 1 µM FAM-ODN 20 min; n = 3; Figure 7", "experimental": "Figure 6 The LRR11 peptide affects the binding and uptake of ODNs by neutrophilic granulocytes. PMNLs (1 × 10^6/mL) in HBSS/HEPES were incubated for 20 min at 37 °C in 5% CO2 with 1 µM FAM-labeled ODN, supplemented or not with 1 µM LRR11 peptide. Both the total ODN accumulation (red) and its intracellular constituent (black) were analyzed by flow cytometry. Surface fluorescence was quenched by trypan blue (TB) solution. Values represent the means ± SEM of FAM fluorescence intensities (RFU, relative fluorescence units) (n = 8). ** p < 0.01; *** p < 0.005, **** p < 0.001 for specified data pairs, as indicated by two-way ANOVA followed by Tukey’s multiple comparison test. Mean fluorescence intensities of unstained PMNLs were 62 ± 12 and 39 ± 5.6 without or after TB quenching, respectively.\nFigure 7 RAGE antagonist effect on oligonucleotide penetration into neutrophil cells. […] Both total oligonucleotide accumulation (A) and its intracellular constituent (B) were analyzed by flow cytometry. The surface fluorescence was quenched by trypan blue solution. Values represent the means ± SEM of FAM fluorescence intensities (RFU) (n = 3). * p < 0.05; […]; *** p < 0.005 for the pair of data specified, as indicated by two-way ANOVA followed by Tukey’s multiple comparison test. Fluorescence intensities of unstained controls were 62 ± 14 and 49 ± 6 without, or after TB quenching, respectively. […]"}, "PMNLs": {"test_system": "PMNLs", "assay": "Phagocytosis of FITC-labeled S. typhimurium by neutrophils", "assay_type": "cell-based, human", "details": "1 µM ODN +/- 1 µM LRR11, FITC-labeled S. typhimurium 20 min; n = 3; Figure S2b", "experimental": "Figure S2b. Influence of LRR11 and ODNs on phagocytic activity of neutrophils. PMNLs supplemented with 1 µM ODN +/- 1 µM LRR11, except for control samples containing HBSS/HEPES instead of ODNs, were incubated for 20 min in Eppendorf tubes at 37 °C in 5% CO2 with continuous stirring. FITC-labeled S. typhimurium were then added for next 20 min, followed by FACS analysis (excitation: 488 nm, emission: 525 nm). Both the relative amounts of PMNLs involved in phagocytosis (A, B) and the fluorescence intensities, reflecting the average number of bacteria captured per cell (C, D), were estimated. To distinguish between internalized and surface-bound bacterial cells, trypan blue at a working concentration of 1 mg/ml, was used to quench the surface FITC fluorescence caused by the attached bacteria. Thus, each series of samples was duplicated to obtain results both without (A, C) and with (B, D) TB quenching, which corresponds to the total interaction and uptake of bacteria. Averaged flow cytometry data are presented, including means ± SEM for the percentages of FITC-positive (i.e., phagocytic) cells (A, B), and mean ± SEM for fluorescence intensities of FITC-positive subpopulations (C, D) (n=3; * p < 0.05; ** p < 0.01 in comparison with corresponding controls, ns – non significant, as indicated by two-way ANOVA followed by Dunnett’s or Tukey’s multiple comparison tests). […]"}, "[6]": {"test_system": "human neutrophils (PMNLs), 5-LOX product synthesis", "set-up": "method as in PMID 27036535", "details": "ref [3]; cited from earlier work"}, "TLR9 signaling": {"test_system": "TLR9 signaling", "details": "ref [25]; cited from earlier work"}}, "note": "Oligonucleotides are written 5' to 3', each unit as a sugar letter and its base; * is a phosphorothioate linkage, no mark a phosphodiester; rarer units and linkages stand in square brackets, end groups in braces. Plain capitals give the bases only. d = 2'-deoxy (DNA)", "data": [{"compound": "CCCCC/C=C\\C[C@@H](O)/C=C/C=C/C=C\\[C@@H](O)CCCC(=O)O", "note": "[LTB4, leukotriene B4, reference compound]", "values": [{"measurement": "RAGE expression / LTB4 production in vascular smooth muscle cells", "setting": "[1]", "value": "increases RAGE expression in proliferating human vascular smooth muscle cells"}]}, {"compound": "LL-37", "values": [{"measurement": "complex with telomeric G-quadruplex DNA", "setting": "[2]", "value": "forms a complex with telomeric G-quadruplex DNA"}, {"measurement": "delivery of bacterial CpG-ODNs to cells", "setting": "cells, CpG-ODN delivery", "value": "promotes the rapid delivery of bacterial CpG-ODNs to cells"}]}, {"compound": "O=C(c1ccc(Cl)cc1)N(Cc1ccccc1)C1CCCCC1", "note": "[FPS-ZM1]", "values": [{"measurement": "Σ 5-LOX metabolites", "setting": "[3]; 150 nM FPS-ZM1 30 min at 37 °C, then 1 µM A23187 10 min, mean ± SEM, three independent experiments", "value": "438 ± 42", "unit": "ng/10^7 PMNLs"}, {"measurement": "effect of FPS-ZM1 on A23187-induced leukotriene synthesis", "setting": "[3]; 150 nM FPS-ZM1, 1 µM A23187", "value": "did not affect the leukotriene synthesis induced by the calcium ionophore A23187"}, {"measurement": "effect of FPS-ZM1 on 5-LOX product formation stimulated by bacterial phagocytosis", "setting": "[4]; 0.15 µM FPS-ZM1, S. typhimurium, Figure 3", "value": "inhibited the 5-LOX product formation stimulated by bacterial phagocytosis"}, {"measurement": "effect of FPS-ZM1 on ODN effects on leukotriene synthesis", "setting": "[4]; 150 nM FPS-ZM1, 15 min before 1 µM ODNs, Figure 3, four independent experiments", "value": "strongly reduce the effects of ODNs on leukotriene synthesis"}, {"measurement": "effect of RAGE antagonist on ODN internalization", "setting": "[5]", "value": "suppressed ODN internalization"}]}, {"compound": "5′-ggTTAGGGTTAGGGTTAGGGTTAGGGggggg-3′ (DNA dG*dG*dTdTdAdGdGdGdTdTdAdGdGdGdTdTdAdGdGdGdTdTdAdGdGdGdG*dG*dG*dG*dG) [G-rich ODN, G-rich ODN containing human telomeric tandem repeats]", "values": [{"measurement": "effect on bacteria engulfment", "setting": "PMNLs", "value": "only G-rich ODN facilitated the bacteria engulfment"}, {"measurement": "effect on 5-LOX activity / leukotriene synthesis", "setting": "[4]; ODN alone, 1 µM, 20 min, then opsonized S. typhimurium 15 min, Figure 1, five independent experiments in duplicate", "value": "increased leukotriene synthesis"}]}, {"compound": "CCN(CC)CCCC(C)Nc1ccnc2cc(Cl)ccc12", "note": "(centres unmarked) [Chloroquine]", "values": [{"measurement": "effect of chloroquine on CpG-ODN action on 5-LOX products", "setting": "[4]; 5 µM Chloroquine, B- and C-class CpG-ODNs, Table S1", "value": "the effects of B- and C-class CpG-ODNs were not sensitive to chloroquine"}, {"measurement": "Σ 5-LOX metabolites", "setting": "[4]; Table S1, 2×10^7 PMNLs, 15 min at 37 °C without or with 5 µM Chloroquine, then ODN, after 20 min 0.5×10^9 opsonized S. typhimurium for 15 min, mean ± SEM, three independent experiments", "value": "19.8 ± 2.7", "unit": "ng/107 PMNLs"}, {"measurement": "effect of chloroquine on inhibition of 5-LOX product formation by ODN 2216", "setting": "[6]", "value": "abrogated by chloroquine"}, {"measurement": "inhibition of CpG-ODN–induced cell activation", "setting": "TLR9 signaling", "value": "known to inhibit CpG-ODN–induced cell activation"}]}]}
